Source: ChEMBL document CHEMBL1152405, “Bis-anthracenyl isoxazolyl amides have enhanced anticancer activity” (Bioorg Med Chem Lett, 2009)

Legend:
Assay type in all cases: functional
[1] = test system: RXF 393; experiment: Growth inhibition of human RXF393 cells after 24 hrs by MTT assay; conditions: RXF 393, 24 h
[2] = test system: SK-MEL-2; experiment: Growth inhibition of human SK-MEL-2 cells at 10 uM after 24 hrs by MTT assay relative to control; parameters: scale not given: the % may be the effect or the level left
[3] = test system: ACHN; experiment: Growth inhibition of human ACHN cells at 10 uM after 24 hrs by MTT assay relative to control; parameters: scale not given: the % may be the effect or the level left
[4] = test system: NCI-H460; experiment: Growth inhibition of human NCI-H460 cells at 10 uM after 24 hrs by MTT assay relative to control; parameters: scale not given: the % may be the effect or the level left
[5] = test system: SNB-75; experiment: Growth inhibition of human SNB75 cells after 24 hrs by MTT assay; conditions: SNB-75, 24 h
[6] = test system: K562; experiment: Growth inhibition of human K562 cells after 24 hrs by MTT assay; conditions: K562, 24 h
[7] = test system: SF-539; experiment: Growth inhibition of human SF539 cells after 24 hrs by MTT assay; conditions: SF-539, 24 h
[8] = test system: 786-0; experiment: Growth inhibition of human 786-0 cells after 24 hrs by MTT assay; conditions: 786-0, 24 h
[9] = test system: Malme-3M; experiment: Growth inhibition of human MALME-3M cells after 24 hrs by MTT assay
[10] = test system: LOX IMVI; experiment: Growth inhibition of human LOXIMVI cells at 10 uM after 24 hrs by MTT assay relative to control; parameters: scale not given: the % may be the effect or the level left
[11] = test system: HOP-92; experiment: Growth inhibition of human HOP92 cells after 24 hrs by MTT assay; conditions: HOP-92, 24 h
[12] = test system: PC-3; experiment: Growth inhibition of human PC3 cells after 24 hrs by MTT assay; conditions: PC-3, 24 h
[13] = test system: OVCAR-5; experiment: Growth inhibition of human OVCAR5 cells after 24 hrs by MTT assay; conditions: OVCAR-5, 24 h
[14] = test system: SF-268; experiment: Growth inhibition of human SF268 cells after 24 hrs by MTT assay; conditions: SF-268, 24 h
[15] = test system: SF-539; experiment: Growth inhibition of human SF539 cells at 10 uM after 24 hrs by MTT assay relative to control; parameters: scale not given: the % may be the effect or the level left
[16] = test system: U-251; experiment: Growth inhibition of human U251 cells at 10 uM after 24 hrs by MTT assay relative to control; parameters: scale not given: the % may be the effect or the level left
[17] = test system: OVCAR-3; experiment: Growth inhibition of human OVCAR-3 cells at 10 uM after 24 hrs by MTT assay relative to control; parameters: scale not given: the % may be the effect or the level left
[18] = test system: UO-31; experiment: Growth inhibition of human UO31 cells after 24 hrs by MTT assay; conditions: UO-31, 24 h
[19] = test system: A549; experiment: Growth inhibition of human A549 cells after 24 hrs by MTT assay; conditions: A549, 24 h
[20] = test system: KM12; experiment: Growth inhibition of human KM12 cells after 24 hrs by MTT assay; conditions: KM12, 24 h
[21] = test system: MDA-MB-435; experiment: Growth inhibition of human MDA-MB-435 cells at 10 uM after 24 hrs by MTT assay relative to control; parameters: scale not given: the % may be the effect or the level left
[22] = test system: TK-10; experiment: Growth inhibition of human TK10 cells after 24 hrs by MTT assay; conditions: TK-10, 24 h
[23] = test system: SN12C; experiment: Growth inhibition of human SN12C cells at 10 uM after 24 hrs by MTT assay relative to control; parameters: scale not given: the % may be the effect or the level left
[24] = test system: SK-MEL-5; experiment: Growth inhibition of human SK-MEL-5 cells after 24 hrs by MTT assay; conditions: SK-MEL-5, 24 h
[25] = test system: MCF7; experiment: Growth inhibition of human MCF7 cells after 24 hrs by MTT assay; conditions: MCF7, 24 h
[26] = test system: A498; experiment: Growth inhibition of human A498 cells after 24 hrs by MTT assay; conditions: A498, 24 h
[27] = Growth inhibition of human Hs 578T cells at 10 uM after 24 hrs by MTT assay relative to control; parameters: scale not given: the % may be the effect or the level left
[28] = test system: SF-268; experiment: Growth inhibition of human SF268 cells at 10 uM after 24 hrs by MTT assay relative to control; parameters: scale not given: the % may be the effect or the level left
[29] = test system: U-251; experiment: Growth inhibition of human U251 cells after 24 hrs by MTT assay; conditions: U-251, 24 h
[30] = test system: OVCAR-3; experiment: Growth inhibition of human OVCAR-3 cells after 24 hrs by MTT assay; conditions: OVCAR-3, 24 h
[31] = test system: NCI/ADR-RES; experiment: Growth inhibition of human NCI/ADR-RES cells at 10 uM after 24 hrs by MTT assay relative to control; parameters: scale not given: the % may be the effect or the level left
[32] = test system: HT-29; experiment: Growth inhibition of human HT-29 cells after 24 hrs by MTT assay; conditions: HT-29, 24 h
[33] = test system: HL-60(TB); experiment: Growth inhibition of human HL-60(TB) cells at 10 uM after 24 hrs by MTT assay relative to control; parameters: scale not given: the % may be the effect or the level left
[34] = read-out: LC50 (the source's name)
[35] = read-out: pLC50 (the source's name) (converted)

Question: What does the source list for `Cc1onc(-c2c3ccccc3c(Cl)c3ccccc23)c1C(=O)Nc1cc(C(=O)NCCCN(C)CCCNC(=O)c2cc(NC(=O)c3c(-c4c5ccccc5c(Cl)c5ccccc45)noc3C)cn2C)n(C)c1`?
Answer: TGI [1]: 3300 nM; GI50 ([1]; read-out: GI50): 1630 nM; GI50 ([1]; read-out: pGI50 (converted)): 1620 nM; Activity [2]: -77.54%; Activity [3]: -100%; Activity [4]: -100%; TGI [5]: 2710 nM; GI50 ([5]; read-out: GI50): 1070 nM; CC50 [5, 34]: 6840 nM; GI50 ([5]; read-out: pGI50 (converted)): 1070 nM; CC50 [5, 35]: 6920 nM; TGI [6]: 2190 nM; GI50 ([6]; read-out: GI50): 822 nM; CC50 [6, 34]: 5140 nM; GI50 ([6]; read-out: pGI50 (converted)): 813 nM; CC50 [6, 35]: 5130 nM; TGI [7]: 2720 nM; GI50 ([7]; read-out: GI50): 1420 nM; CC50 [7, 34]: 5220 nM; GI50 ([7]; read-out: pGI50 (converted)): 1410 nM; CC50 [7, 35]: 5250 nM; TGI [8]: 4940 nM; GI50 ([8]; read-out: GI50): 2130 nM; CC50 [8, 34]: 16700 nM; GI50 ([8]; read-out: pGI50 (converted)): 2140 nM; CC50 [8, 35]: 16600 nM; TGI [9]: 4270 nM; GI50 ([9]; read-out: GI50): 1930 nM; GI50 ([9]; read-out: pGI50 (converted)): 1950 nM; Activity [10]: -100%; TGI [11]: 2480 nM; GI50 ([11]; read-out: GI50): 1220 nM; CC50 [11, 34]: 5030 nM; GI50 ([11]; read-out: pGI50 (converted)): 1230 nM; CC50 [11, 35]: 5010 nM; TGI [12]: 2690 nM; GI50 ([12]; read-out: GI50): 1400 nM; CC50 [12, 34]: 5190 nM; GI50 ([12]; read-out: pGI50 (converted)): 1410 nM; CC50 [12, 35]: 5250 nM; TGI [13]: 2780 nM; GI50 ([13]; read-out: GI50): 1470 nM; CC50 [13, 34]: 5270 nM; GI50 ([13]; read-out: pGI50 (converted)): 1480 nM; CC50 [13, 35]: 5250 nM; TGI [14]: 2900 nM; GI50 ([14]; read-out: GI50): 1390 nM; GI50 ([14]; read-out: pGI50 (converted)): 1380 nM; Activity [15]: -100%; Activity [16]: -100%; Activity [17]: -100%; TGI [18]: 3400 nM; GI50 ([18]; read-out: GI50): 1780 nM; GI50 ([18]; read-out: pGI50 (converted)): 1780 nM; TGI [19]: 2850 nM; GI50 ([19]; read-out: GI50): 1280 nM; GI50 ([19]; read-out: pGI50 (converted)): 1290 nM; TGI [20]: 2630 nM; GI50 ([20]; read-out: GI50): 1350 nM; GI50 ([20]; read-out: pGI50 (converted)): 1350 nM; Activity [21]: -100%; TGI [22]: 4590 nM; GI50 ([22]; read-out: GI50): 2150 nM; CC50 [22, 34]: 9770 nM; GI50 ([22]; read-out: pGI50 (converted)): 2140 nM; CC50 [22, 35]: 9770 nM; Activity [23]: -96.46%; TGI [24]: 2790 nM; GI50 ([24]; read-out: GI50): 1480 nM; CC50 [24, 34]: 5280 nM; GI50 ([24]; read-out: pGI50 (converted)): 1480 nM; CC50 [24, 35]: 5250 nM; TGI [25]: 2400 nM; GI50 ([25]; read-out: GI50): 1180 nM; CC50 [25, 34]: 4900 nM; GI50 ([25]; read-out: pGI50 (converted)): 1170 nM; CC50 [25, 35]: 4900 nM; TGI [26]: 17700 nM; GI50 ([26]; read-out: GI50): 2630 nM; CC50 [26, 34]: 44400 nM; GI50 ([26]; read-out: pGI50 (converted)): 2630 nM; CC50 [26, 35]: 44700 nM; Activity [27]: -71.85%; Activity [28]: -100%; GI50 ([29]; read-out: GI50): 1500 nM; GI50 ([29]; read-out: pGI50 (converted)): 1510 nM; TGI [30]: 2610 nM; GI50 ([30]; read-out: GI50): 1310 nM; CC50 [30, 34]: 5190 nM; GI50 ([30]; read-out: pGI50 (converted)): 1320 nM; CC50 [30, 35]: 5130 nM; Activity [31]: 47.82%; TGI [32]: 2470 nM; GI50 ([32]; read-out: GI50): 1200 nM; GI50 ([32]; read-out: pGI50 (converted)): 1200 nM; Activity [33]: -94.78%
